According to PMC4885489, “Prediction of Drug-Drug Interactions Arising from CYP3A induction Using a Physiologically Based Dynamic Model” (Drug Metabolism and Disposition, 2016):
Where “and” joins values, the source holds several entries; their conditions need not be identical. Identical values can stand only once. Like-named read-outs stand apart in the source and are kept apart here.

How the values were obtained:
[1] = cited from earlier work
CYP3A4 [2] = settings: human, in vivo, po, cited from earlier work
[3] = cited from earlier work; remark: listed apart in the source
[4] = cited from earlier work; remark: listed apart in the source
rCYP3A5 = settings: cited from earlier work; for Km: read-out: rCYP3A5 Km
CYP3A [5] = settings: mean of four human hepatocyte donors; three-parameter fit; Indmax = Emax + 1
CYP3A [6] = settings: mean of four human hepatocyte donors; three-parameter fit; Indmax = Emax + 1; remark: listed apart in the source
HLM [7] = tested on: HLM; parameters: method as in ref (Pearce et al., 2002); settings: Other enzymes were combined; ref (Pearce et al., 2002); cited from earlier work
rCYP2C8 = tested on: rCYP2C8; parameters: method as in ref (Cazali et al., 2003); settings: ref (Cazali et al., 2003); cited from earlier work
rUGT2B7 = tested on: rUGT2B7; parameters: method as in ref (Staines et al., 2004); settings: ref (Staines et al., 2004); cited from earlier work
CYP3A [8] = assay: in vitro; settings: human, cryopreserved human hepatocytes, probe testosterone (6β-hydroxytestosterone formation)
CYP3A [9] = assay: in vitro; settings: human, cryopreserved human hepatocytes
[10] = cited from earlier work; remark: listed apart in the source
[11] = ref Meta-analysis (Bonneton et al., 1992); (de Groot et al., 1984); cited from earlier work
[12] = Neutral; ref (Zhu et al., 2002); (Lombardo et al., 2000); (Henczi et al., 1995) and 4 others; cited from earlier work
rCYP3A4 = settings: ref (Cazali et al., 2003), (Huang et al., 2004), cited from earlier work
HLM [13] = assay: Additional (unassigned) intrinsic clearance; settings: Added to recover degree of auto-induction via enzymes other than CYP3A4
CYP3A4 [14] = assay: Rifampicin-mediated clinical drug-drug interaction studies with CYP3A4 probe substrates; type: in vivo, human; settings: for reduction in MDZ AUC, median: rifampicin, across clinical studies of Table 3; for fold induction: human, plasma, read-out: Geometric mean fold induction
rUGT1A4 = settings: corrected for fumic & ISEF, ref Meta-analysis (Emoto et al., 2003), (Galetin et al., 2004) and 7 others incl. (Hyland et al., 2009), cited from earlier work
CYP2D6 = tested on: CYP2D6; parameters: method as in ref (Ching et al., 1995); (Broly et al., 1989); (Lalovic et al., 2004); settings: ref (Ching et al., 1995); (Broly et al., 1989); (Lalovic et al., 2004); cited from earlier work
CYP3A4 [15] = settings: read-out: CYP3A4 Ki; ref (Nielsen et al., 1999); (Ngui et al., 2000); (Guengerich et al., 1986); cited from earlier work
CYP3A4 [16] = settings: human, in vivo, cited from earlier work
rCYP1A2 = settings: corrected for fumic & ISEF, ref (Von Moltke et al., 1999), cited from earlier work; for Km: read-out: rCYP1A2 Km
rCYP2C9 = settings: corrected for fumic & ISEF, ref (Von Moltke et al., 1999), cited from earlier work; for Km: read-out: rCYP2C9 Km
rCYP2C19 = settings: M3, corrected for fumic & ISEF, ref (Von Moltke et al., 1999), cited from earlier work
rCYP2D6 = settings: corrected for fumic & ISEF, ref (Von Moltke et al., 1999), cited from earlier work; for Km: read-out: rCYP2D6 Km
rCYP2J2 = settings: corrected for fumic & ISEF, ref (Von Moltke et al., 1999), cited from earlier work; for Km: read-out: rCYP2J2 Km
[17] = 1-hydroxylation, corrected for fumic & ISEF, ref Meta-analysis (Emoto et al., 2003), (Galetin et al., 2004) and 7 others
[18] = 4-hydroxylation, corrected for fumic & ISEF, ref Meta-analysis (Emoto et al., 2003), (Galetin et al., 2004) and 7 others

## C=C[C@@]1(O)CN2CC[C@H]1C[C@@H]2[C@@H](O)c1ccnc2ccc(OC)cc12 [3-OH Quinidine]
[1]; in vivo
  CLR: 16.7 L/h
  CLpo: 52.6 L/h

## Cc1nnc2n1-c1ccc(Cl)cc1C(c1ccccc1)=NC2 [Alprazolam, alprazolam]
CYP3A4 [2]; 1 mg
  AUC: 242 (31.3) ng/mL.h
CYP3A4 [2]
  AUCi: 28.4 (23.9) ng/mL.h
[3]; ref (Smith et al., 1984), (Lin et al., 1988), (Kirkwood et al., 1991), (Amchin et al., 1998), (Greenblatt et al., 1983)
  ka: 3.56 h⁻¹
[4]; in vivo
  Vss (Minimal PBPK): 0.99 L/kg
[1]; in vivo
  CLR: 0.678 L/h
rCYP3A5; 4-hydroxylation, corrected for fumic & ISEF, ref Meta-analysis (Hirota et al., 2001), (Galetin et al., 2004) (Williams et al., 2002)
  Km: 211 µM
rCYP3A5; second pathway, printed 'oxylation', corrected for fumic & ISEF, ref Meta-analysis (Hirota et al., 2001), (Galetin et al., 2004) (Williams et al., 2002)
  Km: 205 µM

## NC(=O)N1c2ccccc2C=Cc2ccccc21 [Carbamazepine, carbamazepine]
CYP3A [5]
  Activity Indmax: 16.6 fold
CYP3A [6]
  mRNA Indmax: 21.9 fold
HLM [7]
  Add HLM CLint: 0.255 µL/min/mg
rCYP2C8
  Km: 742 µM
  rCYP2C8 Vmax: 0.03 pmol/min/pmol
rUGT2B7
  Km: 25.4 µM
  rUGT2B7 Vmax: 4.18 pmol/min/pmol
CYP3A [8]
  EC50: 59.1 µM
CYP3A [9]
  EC50: 58.7 µM
[10]; ref Meta-analysis (Grimsley et al., 1991), (Di Salle et al., 1974), (Rawlins et al., 1975) and 4 others
  fu: 0.25
[11]
  B:P: 1.07
[12]
  logP: 2.22
[3]; ref (Geradin et al., 1976), (Grimsley et al., 1991), (Olling et al., 1999), (Wong et al., 1983)
  ka: 0.5 h⁻¹
[3]; ref (Tchaparian et al., 2008), (Faigle and Feldmann, 1975), (Levy et al., 1975)
  fa: 0.84
[4]; ref (Ramsay et al., 1990)
  Vss (Minimal PBPK): 0.78 L/kg
[1]; parent carbamazepine, ref (Kim et al., 2005)
  CLR: 0.0084 L/h
rCYP3A4; read-out: rCYP3A4 Km
  Km: 180 µM
rCYP3A4
  rCYP3A4 Vmax: 0.72 pmol/min/pmol
rCYP3A5; ref (Huang et al., 2004)
  Km: 332 µM
  rCYP3A5 Vmax: 1.44 pmol/min/pmol
HLM [13]
  Add rCYP CLint: 0.010 µL/min/pmol

## NC(=O)N1c2ccccc2C2OC2c2ccccc21 (stereo not shown) [Carbamazepine-10,11-epoxide]
[1]; in vivo
  CLR: 0.14 L/h
  CLpo: 6.07 L/h

## Cc1ncc2n1-c1ccc(Cl)cc1C(c1ccccc1F)=NC2 [Midazolam, midazolam]
CYP3A4 [14]; MDZ administered orally, listed as MDZ
  reduction in MDZ AUC, median: 17.5 fold and 18.1 fold
CYP3A4 [14]; MDZ i.v. administration
  reduction in MDZ AUC, median: 2.0 fold
CYP3A4 [14]; iv
  fold induction: 1.99
CYP3A4 [14]; po
  fold induction: 18.1
CYP3A4 [14]; meta-analysis of studies where midazolam was administered orally with rifampicin
  1/AUC ratio, CI of the observations: 5.4-60.4
CYP3A4 [2]; 0.075 mg
  AUC ratio: 2.3 fold
[3]; ref (Allonen et al., 1981)
  ka: 3 h⁻¹
[4]; in vivo
  Vss (Minimal PBPK): 1 L/kg
[1]; in vivo
  CLR: 0.085 L/h
  Fe: 0.0033
rCYP3A5; [17]
  rCYP3A5 Vmax: 19.7 µL/min/pmol
  Km: 4.16 µM
rCYP3A5; [18]
  rCYP3A5 Vmax: 4.03 µL/min/pmol
  Km: 34.8 µM
rUGT1A4
  rUGT1A4 Vmax: 445 µL/min/mg
rUGT1A4; read-out: rUGT1A4 Km
  Km: 40.3 µM

## C=C[C@H]1C[N@@]2CC[C@H]1C[C@@H]2[C@@H](O)c1ccnc2ccc(OC)cc12 [Quinidine, quinidine]
CYP2D6
  Ki: […]
CYP3A4 [15]
  Ki: 40 µM

## CO[C@H]1/C=C/O[C@@]2(C)Oc3c(C)c(O)c4c(O)c(c(/C=N/N5CCN(C)CC5)c(O)c4c3C2=O)NC(=O)/C(C)=C\C=C\[C@H](C)[C@H](O)[C@@H](C)[C@@H](O)[C@@H](C)[C@H](OC(C)=O)[C@@H]1C [Rifampicin, rifampicin]
[10]; ref (Burman et al., 2001)
  fu: 0.15
[4]; ref (Loos et al., 1985)
  Vss (Minimal PBPK): 0.33 L/kg
[1]; in vivo
  CLiv: 7 L/h
[1]; ref Polk 2001
  CLR: 1.2 L/h

## Cc1nnc2n1-c1ccc(Cl)cc1C(c1ccccc1Cl)=NC2 [Triazolam, triazolam]
CYP3A4 [2]; 0.5 mg
  AUC: 14.8 (21.4) ng/mL.h
CYP3A4 [2]
  1/AUC Ratio: 20.0
  AUCi: 0.74 (59.8) ng/mL.h

## Cc1ccc(-c2nc3ccc(C)cn3c2CC(=O)N(C)C)cc1 [Zolpidem, zolpidem]
CYP3A4 [2]; 20 mg
  AUC: 1110 (36.9) ng/mL.h
CYP3A4 [2]
  1/AUC Ratio: 3.34
  AUCi: 332 (56.4) ng/mL.h
CYP3A4 [16]; 5 mg
  AUC: 0.235 (70.4) mg/L.h
CYP3A4 [16]
  1/AUC Ratio: 2.31
  AUCi: 0.102 (58.1) mg/L.h
[3]; ref (Olubodun et al., 2003), (Patat et al., 1994)
  ka: 2.25 h⁻¹
[4]; in vivo
  Vss (Minimal PBPK): 0.68 L/kg
[1]; in vivo
  CLR: 0.18 L/h
  fe: 0.01
rCYP1A2; M3
  rCYP1A2 Vmax: 7.99 µL/min/pmol
  Km: 38 µM
rCYP1A2; M4
  rCYP1A2 Vmax: 0.777 µL/min/pmol
  Km: 40 µM
rCYP2C9; M3
  rCYP2C9 Vmax: 17.42 µL/min/pmol
  Km: 103 µM
rCYP2C9; M4
  rCYP2C9 Vmax: 0.888 µL/min/pmol
  Km: 81 µM
rCYP2C19
  rCYP2C19 Vmax: 0.8 µL/min/pmol
rCYP2C19; read-out: rCYP2C19 Km
  Km: 133 µM
rCYP2D6; M3
  rCYP2D6 Vmax: 1.44 µL/min/pmol
  Km: 190 µM
rCYP2D6; M4
  rCYP2D6 Vmax: 4.68 µL/min/pmol
  Km: 214 µM
rCYP2J2; M4
  rCYP2J2 Vmax: 6.86 µL/min/pmol
  Km: 399 µM
rCYP2J2; M3
  Km: 340 µM
